Like-named read-outs stand apart in the source and are kept apart here.
How the values were obtained:
[1] = system: GL261 cells; test: cells; assay type: cell-based, mouse
Protocol: Cells were seeded in 96-well plates for 24 h prior to the addition of TmHg, EtHg (1 µM), TMZ (200, 400, and 800 µM), and for the 48 h end point the co-exposure of TMZ 200 µM with 1 µM EtHg and 1 µM TmHg. After exposure for 24 and 48 h, the supernatant was transferred to a fresh plate and a lysis buffer (10×) (Thermo Scientific™ Pierce™) was added to wells containing cells and incubated at 37°C for 45 min. LDH activity was evaluated using LDH Cytotoxicity Assay Kit from Thermo Scientific™ Pierce™ in the supernatant and lysate by the addition of lactate (substrate), a tetrazolium salt, and NAD^+ (cofactor) (Reaction Mixture), according to the manufacturer’s instructions. Following 30 min of incubation in the dark at room temperature, LDH release was assessed by measuring the absorbance at 490 and 680 nm in a microplate reader (Omega BMG LABTECH). The release of LDH was quantified as the ratio between the amount in the supernatant and total LDH (supernatant + lysate) ([Branco et al., 2017]).

[2] = system: GL261 cells; test: cells; assay type: cell-based, mouse; details: for IC50: Mus musculus, read-out: IC50 (MTT assay)
Protocol: The effect of TmHg and EtHg on the viability of GL261 and N9 cells was evaluated by the MTT assay as previously described ([Branco et al., 2014]). Briefly, cells (5 × 10^3) were seeded in 96-well plates (Nunc®) and incubated at 37°C for 24 h to allow proper adherence to plates. Afterwards, TmHg and EtHg (0, 0.5, 1, 2.5, and 5 μM) were added to wells. The same procedure was carried out to evaluate the effect of TMZ on the cellular viability of GL261 and DMSO at a final concentration of 0.1% was added as a control group. For co-exposure, the addition of the mercury compounds (EtHg—1 and 2 μM; TmHg—1 and 2 µM) under study followed the addition of TMZ (200 µM).
Cell viability was determined at the time of addition of the compounds (0 h) and after 24, 48, and 72 h of exposure by adding MTT to a final concentration of 400 μg/ml per well and incubating at 37°C for 4 h. After incubation, the medium was removed, and the formazan crystals were dissolved in a 4:1 DMSO/glycine buffer (pH 10.5). After shaking for 15 min, the viability was evaluated through the measurement of formazan absorption at 550 nm on a microplate reader (Zenyth 3100, Anthos Labtec Instruments) ([Branco et al., 2014]).
The IC50 is the concentration of a compound that decreases MTT reduction by 50% relative to the non-treated control at each time point.

[3] = set-up: method as in JECFA 2004, WHO Technical Report Series 922; details: ref JECFA 2004, WHO Technical Report Series 922; cited from earlier work

Row | Compound | change of LDH levels ([1]; GL261, 200 µM TMZ alone) | EC50 ([1]; Mus musculus, GL261, 48 h exposure, read-out: EC50 (LDH assay)) [µM] | reduction of viability (MTT) ([2]; GL261, 24 h exposure, maximal effect) [%] | IC50 ([2]; GL261, 48 h exposure) [µM] | IC50 ([2]; GL261, 72 h exposure) [µM] | safe concentration of intake without appearance of neurological disorders [3] [µg/Kg b.w./week]
1 | Cn1nnc2c(C(N)=O)ncn2c1=O [TMZ, temozolomide] | did not change the levels of LDH | > 800 | ≤ 40 | 444 ± 60 | 276 ± 7 | 
2 | [CH3][Hg][Cl] [methylmercury] |  |  |  |  |  | 1.6

Reference: publication PMC9260667, “Thioredoxin Reductase Inhibitors as Potential Antitumors: Mercury Compounds Efficacy in Glioma Cells” (Frontiers in Molecular Biosciences, 2022)
